# Measured values as given in ChEMBL document CHEMBL1201862, “PubChem BioAssay data set” (2004).
#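 48-hour exposure; five concentrations; linearly interpolated endpoints. At the GI50, growth is halved.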 The source made the active and inactive calls. Cut-off read from the data, not from the text of the source: active = GI50 up to about 1.1 µM and inactive = higher.
# Tests used:
# Experiment in all cases: growth of human tumour cells (NCI), 48 h
# ACHN = tested on: ACHN
# BT-549 = tested on: BT-549
# CAKI-1 = tested on: CAKI-1
# HCT-116 = tested on: HCT-116
# HL-60 = tested on: HL-60
# HOP-92 = tested on: HOP-92
# Hs-578T = tested on: Hs-578T
# IGROV-1 = tested on: IGROV-1
# KM12 = tested on: KM12
# NCI-H460 = tested on: NCI-H460
# NCI/ADR-RES = tested on: NCI/ADR-RES
# RPMI-8226 = tested on: RPMI-8226
# RXF 393 = tested on: RXF 393
# SF-539 = tested on: SF-539
# SK-MEL-5 = tested on: SK-MEL-5
# SK-OV-3 = tested on: SK-OV-3
# SN12C = tested on: SN12C
# T47D = tested on: T47D
# U-251 = tested on: U-251
# HOP-18 = tested on: HOP-18
SMILES,GI50 (ACHN),GI50 (BT-549),GI50 (CAKI-1),GI50 (HCT-116),GI50 (HL-60),GI50 (HOP-92),GI50 (Hs-578T),GI50 (IGROV-1),GI50 (KM12),GI50 (NCI-H460),GI50 (NCI/ADR-RES),GI50 (RPMI-8226),GI50 (RXF 393),GI50 (SF-539),GI50 (SK-MEL-5),GI50 (SK-OV-3),GI50 (SN12C),GI50 (T47D),GI50 (U-251),GI50 (HOP-18)
CCCCNc1nc(SC)nc2[nH]cnc12,> 100 µM (inactive),> 100 µM (inactive),> 100 µM (inactive),> 100 µM (inactive),> 100 µM (inactive),> 59 µM (inactive),2.36 µM (inactive),> 100 µM (inactive),> 100 µM (inactive),> 100 µM (inactive),> 100 µM (inactive),> 100 µM (inactive),> 88.5 µM (inactive),> 100 µM (inactive),> 100 µM (inactive),5.82 µM (inactive),> 100 µM (inactive),> 100 µM (inactive),> 100 µM (inactive),
COC(=O)C12CC(C3CC31)C1CC12 (stereo unspecified),> 100 µM (inactive),,> 100 µM (inactive),> 100 µM (inactive),> 100 µM (inactive),59 µM (inactive),,> 100 µM (inactive),,> 100 µM (inactive),,> 100 µM (inactive),,,> 100 µM (inactive),> 100 µM (inactive),> 100 µM (inactive),,> 100 µM (inactive),> 100 µM (inactive)
CCOC(=O)C(Cc1ccc(N(CCCl)CCCl)cc1)NC(=O)CCCN1C(=O)CN=C(c2ccccc2)c2cc(Cl)ccc21 (stereo unspecified),7.08 µM (inactive),41.9 µM (inactive),15.2 µM (inactive),21 µM (inactive),2.21 µM (inactive),3.77 µM (inactive),6.67 µM (inactive),4.37 µM (inactive),25.5 µM (inactive),5.35 µM (inactive),22 µM (inactive),3.48 µM (inactive),3.25 µM (inactive),6.37 µM (inactive),12.4 µM (inactive),> 76.2 µM (inactive),4.43 µM (inactive),3.55 µM (inactive),27.3 µM (inactive),
CC1=Nn2c(nnc2-c2ccc(Cl)cc2)NC(C)(C)C1,> 100 µM (inactive),,> 100 µM (inactive),,> 100 µM (inactive),> 100 µM (inactive),,> 100 µM (inactive),> 100 µM (inactive),> 100 µM (inactive),,> 100 µM (inactive),,> 100 µM (inactive),> 100 µM (inactive),> 100 µM (inactive),,,> 100 µM (inactive),> 100 µM (inactive)
[O-][S+]1c2ccccc2N=C(c2ccc3ccccc3c2)CC1C1=CC=CCC1 (stereo unspecified),19 µM (inactive),,16.1 µM (inactive),,17.6 µM (inactive),,,13.2 µM (inactive),14.9 µM (inactive),20.3 µM (inactive),,8.75 µM (inactive),16.8 µM (inactive),21.9 µM (inactive),16.6 µM (inactive),30.5 µM (inactive),17.4 µM (inactive),,,35.8 µM (inactive)
Cc1cc(C)c(-c2noc(-c3ccc(Cl)cc3)c2C2=NCCCN2)c(C)c1,17.6 µM (inactive),,> 100 µM (inactive),4.57 µM (inactive),13.2 µM (inactive),,,32.1 µM (inactive),23 µM (inactive),11.7 µM (inactive),,16.2 µM (inactive),7.1 µM (inactive),14.1 µM (inactive),10.4 µM (inactive),18.4 µM (inactive),19.1 µM (inactive),,7.57 µM (inactive),27.9 µM (inactive)
CC(C)(C)c1cc(C(O)(C(F)(F)F)C(F)(F)F)c2c(c1)C(C(F)(F)F)(C(F)(F)F)OC(C)(C(C)(C)C)N2 (stereo unspecified),3.06 µM (inactive),,3.04 µM (inactive),3.42 µM (inactive),,< 0.01 µM (active),,4.78 µM (inactive),3.94 µM (inactive),2.48 µM (inactive),,2.57 µM (inactive),4.43 µM (inactive),3.55 µM (inactive),2.01 µM (inactive),2.25 µM (inactive),4.45 µM (inactive),,2.69 µM (inactive),2.76 µM (inactive)
O=C1CCCCCCC2=C1C(Sc1ccccc1)CC2 (stereo unspecified),36.1 µM (inactive),,,21.7 µM (inactive),12.8 µM (inactive),,,,23.2 µM (inactive),27.2 µM (inactive),,30.3 µM (inactive),18.9 µM (inactive),,30.5 µM (inactive),83 µM (inactive),19.9 µM (inactive),,37.1 µM (inactive),> 100 µM (inactive)
CC(C)=CC[C@]12CCN[C@H]1N(S(=O)(=O)c1ccccc1)c1ccccc12,21.1 µM (inactive),17.1 µM (inactive),20.1 µM (inactive),14.4 µM (inactive),17.8 µM (inactive),12.2 µM (inactive),20.5 µM (inactive),10.6 µM (inactive),22 µM (inactive),14.5 µM (inactive),14.8 µM (inactive),18.3 µM (inactive),13.5 µM (inactive),20.3 µM (inactive),14.9 µM (inactive),12.7 µM (inactive),13.6 µM (inactive),15.2 µM (inactive),16 µM (inactive),
CN1C(=O)CC2(C)c3cc(O)cc(Br)c3N(C)C12 (stereo unspecified),> 100 µM (inactive),,,> 100 µM (inactive),,> 100 µM (inactive),,> 100 µM (inactive),> 100 µM (inactive),> 100 µM (inactive),,,> 100 µM (inactive),> 100 µM (inactive),> 100 µM (inactive),> 100 µM (inactive),> 100 µM (inactive),,> 100 µM (inactive),31.6 µM (inactive)
CC(CO)(CO)/N=C/c1cc(I)cc(I)c1O,25 µM (inactive),14 µM (inactive),22.2 µM (inactive),14.8 µM (inactive),11.2 µM (inactive),14 µM (inactive),23.6 µM (inactive),9.4 µM (inactive),14.5 µM (inactive),22.2 µM (inactive),14.2 µM (inactive),21.3 µM (inactive),10.9 µM (inactive),14.5 µM (inactive),13.8 µM (inactive),13.6 µM (inactive),13.3 µM (inactive),23.1 µM (inactive),12.8 µM (inactive),
O=C(/C=C/c1ccccc1)CCC1C(=O)c2ccccc2C1=O,> 100 µM (inactive),> 100 µM (inactive),> 100 µM (inactive),> 100 µM (inactive),> 100 µM (inactive),> 100 µM (inactive),> 100 µM (inactive),> 100 µM (inactive),> 100 µM (inactive),> 100 µM (inactive),> 100 µM (inactive),73.6 µM (inactive),> 100 µM (inactive),> 100 µM (inactive),> 100 µM (inactive),> 100 µM (inactive),> 100 µM (inactive),> 100 µM (inactive),> 100 µM (inactive),
CCOc1ccc(/N=C/C=C(\Cl)c2ccc3ccccc3c2)cc1,17.7 µM (inactive),20.2 µM (inactive),18.8 µM (inactive),9.14 µM (inactive),8.59 µM (inactive),15.3 µM (inactive),29.8 µM (inactive),17.1 µM (inactive),16.3 µM (inactive),20 µM (inactive),12.1 µM (inactive),6.65 µM (inactive),15.3 µM (inactive),21.2 µM (inactive),16.4 µM (inactive),19.7 µM (inactive),17.4 µM (inactive),4.95 µM (inactive),17.5 µM (inactive),
Cc1ccc(NC(=O)C2C(=O)N(c3ccc(C)cc3)C(=O)/C2=N\NC(N)=S)cc1 (stereo unspecified),> 100 µM (inactive),,> 100 µM (inactive),> 100 µM (inactive),,> 100 µM (inactive),,> 100 µM (inactive),> 100 µM (inactive),> 100 µM (inactive),,> 100 µM (inactive),> 100 µM (inactive),> 100 µM (inactive),> 100 µM (inactive),> 100 µM (inactive),> 100 µM (inactive),,> 100 µM (inactive),> 100 µM (inactive)
CCCCCCCCCCCCC(Br)C(=O)SCCNC(=O)CCNC(=O)[C@@H](O)C(C)(C)COP(=O)(O)OP(=O)(O)OCC1OC(n2cnc3c(N)ncnc32)C(O)C1OP(=O)(O)O (stereo partly specified),> 56.5 µM (inactive),,,22 µM (inactive),> 56.5 µM (inactive),> 56.5 µM (inactive),,> 56.5 µM (inactive),> 56.5 µM (inactive),22.5 µM (inactive),,,> 56.5 µM (inactive),> 56.5 µM (inactive),> 56.5 µM (inactive),> 56.5 µM (inactive),> 56.5 µM (inactive),,33.7 µM (inactive),> 56.5 µM (inactive)
CC12CO[C@@](C)(CC(S(=O)(=O)c3ccccc3)C1)O2 (stereo partly specified),> 100 µM (inactive),,,> 100 µM (inactive),> 100 µM (inactive),> 100 µM (inactive),,> 100 µM (inactive),> 100 µM (inactive),> 100 µM (inactive),,> 100 µM (inactive),> 100 µM (inactive),> 100 µM (inactive),> 100 µM (inactive),> 100 µM (inactive),> 100 µM (inactive),,> 100 µM (inactive),> 100 µM (inactive)
Cn1c(=S)[nH]c(N)c(Cc2ccccc2)c1=O,> 100 µM (inactive),> 100 µM (inactive),> 100 µM (inactive),> 100 µM (inactive),> 100 µM (inactive),25.6 µM (inactive),39 µM (inactive),21.2 µM (inactive),66.1 µM (inactive),> 100 µM (inactive),64.4 µM (inactive),> 100 µM (inactive),> 100 µM (inactive),> 100 µM (inactive),> 100 µM (inactive),> 100 µM (inactive),> 100 µM (inactive),40.3 µM (inactive),> 100 µM (inactive),
